This experiment has as its target T1, human M1 receptor (Homo sapiens, UniProt P11229).
T1 sequence (P11229 1-460): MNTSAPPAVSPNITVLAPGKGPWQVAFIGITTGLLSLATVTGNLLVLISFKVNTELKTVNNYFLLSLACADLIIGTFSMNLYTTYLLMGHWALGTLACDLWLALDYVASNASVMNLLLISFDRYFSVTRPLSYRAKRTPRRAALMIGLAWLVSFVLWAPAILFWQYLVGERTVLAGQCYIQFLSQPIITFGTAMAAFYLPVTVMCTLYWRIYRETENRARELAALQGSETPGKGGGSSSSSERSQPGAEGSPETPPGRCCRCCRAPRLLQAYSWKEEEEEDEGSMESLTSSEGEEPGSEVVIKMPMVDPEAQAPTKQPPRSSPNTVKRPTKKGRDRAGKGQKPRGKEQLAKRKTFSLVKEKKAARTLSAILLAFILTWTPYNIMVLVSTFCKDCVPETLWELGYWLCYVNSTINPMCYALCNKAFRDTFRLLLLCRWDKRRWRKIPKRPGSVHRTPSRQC
The experiment in a line: In vitro functional assay of muscarinic acetylcholine receptor activity (aequorin calcium flux, reversal of EC80 acetylcholine response). Format: cell-based. The conditions noted are these: CHO-K1 cells stably expressing human M1 receptor with aequorin; acetylcholine at EC80; calcium flux (luminescence); read-out: M1 IC50. The protocol: CHO-K1 cells stably expressing human M1 receptor with aequorin (Perkin Elmer) were grown in F12 media (Gibco) containing 10% FBS (ATCC), 0.4 mg/mL geneticin (Sigma-Aldrich) and 0.25 mg/mL Zeocin (Invitrogen). Cells were grown as per the manufacturer's protocol. For compound testing, cells were grown to confluency and detached gently with Accutase (Sigma-Aldrich) followed by centrifugation for 5 min at 150× g. Cells were then re-suspended in assay buffer (i.e. DMEM/F-12 HEPES without phenol red (Invitrogen) with 0.1% BSA (Sigma-Aldrich)) at a density of 5×10^6 cells/ml. Under sterile conditions, 5 μM coelenterazine (Invitrogen) was added to the cells, mixed, then incubated at room temperature protected from light, with gentle agitation, for 4 h.
Primary compound plates were prepared in 100% DMSO in opaque 96-well plates (VWR) and serially diluted in half log increments. Secondary compound plates were prepared at 3× concentration in assay buffer. Compounds were added to white, clear bottom tissue culture treated 96-well plates (Fisher Scientific). Coelenterazine-loaded cells were then added at 5×10^5 cells/well.
Compounds and cells were incubated at room temperature for 30 min in the dark. Acetylcholine at the EC80 concentration was added and calcium flux measured using a FlexStation 3 (Molecular Devices). Sigmoidal dose-response curves were generated by measuring luminescence over 40 sec and calculating the area under the curve. Dose response curves and IC50 values were generated using Prism (GraphPad). Compounds were tested at a final concentration range of 100 μM to […] in 0.1% DMSO.

For the molecule “6-(3-(2-(1-(1-methyl-6-oxo-1,6-dihydropyridin-3-yl) cyclopropoxy)acetyl)-3,8-diazabicyclo[3.2.1]octan- 8-yl)nicotinonitrile [Example 301]”, the IC50 was 0.1 to 1 µM.

`N#Cc1ccc(N2[C@@H]3CC[C@H]2CN(C(=O)CCN2CCC2c2ccc(F)cc2)C3)nc1` (mixture of isomers) [Example 23, 6-(3-(3-(2-(4-fluorophenyl)azetidin-1-yl)propanoyl)-3,8-diazabicyclo[3.2.1]octan-8-yl)nicotinonitrile]: the half-inhibitory concentration (IC50) was in the range of 1 to 10 µM.

Regarding `COc1cccc2c1CCN(CCC(=O)N1C[C@H]3CC[C@@H](C1)N3c1ccc(C#N)cn1)C2C` (mixture of isomers) [Example 38, 6-(3-(3-(5-methoxy-1-methyl-3,4-dihydroisoquinolin-2(1H)-yl)propanoyl)-3,8-diazabicyclo[3.2.1]octan-8-yl)nicotinonitrile], the IC50 was in the range of 1 to 10 µM.

As for `CC(NCCC(=O)N1CC2CCC(C1)N2c1ccc(C#N)cn1)c1cccc2ncccc12` (racemic) [Example 48, 6-(3-(3-((1-(quinolin-5-yl)ethyl)amino)propanoyl)-3,8-diazabicyclo[3.2.1]octan-8-yl)nicotinonitrile], the half-inhibitory concentration (IC50) was less than 0.01 µM.

With `CC(C)(O)C(NCCC(=O)N1C[C@H]2CC[C@@H](C1)N2c1ccc(C#N)cn1)c1ccccc1` (mixture of isomers) [Example 49, 6-(3-(3-((2-hydroxy-2-methyl-1-phenylpropyl)amino)propanoyl)-3,8-diazabicyclo[3.2.1]octan-8-yl)nicotinonitrile], the IC50 was 1 to 10 µM.

As to `COc1cnc2cccc(C(C)NCCC(=O)N3C[C@H]4CC[C@@H](C3)N4c3ccc(C#N)cn3)c2c1` (mixture of isomers) [Example 50, 6-(3-(3-((1-(3-methoxyquinolin-5-yl)ethyl)amino)propanoyl)-3,8-diazabicyclo[3.2.1]octan-8-yl)nicotinonitrile], the IC50 is less than 0.01 µM.

`CC(NCCC(=O)N1C[C@H]2CC[C@@H](C1)N2c1ccc(C#N)cn1)c1cccc2ncsc12` (mixture of isomers) [Example 51, 6-(3-(3-((1-(benzo[d]thiazol-7-yl)ethyl)amino)propanoyl)-3,8-diazabicyclo[3.2.1]octan-8-yl)nicotinonitrile]: the IC50 lay within 0.01 to 0.1 µM.

As for `N#Cc1ccc(N2[C@@H]3CC[C@H]2CN(C(=O)CCNC(c2cccc4ncsc24)C(F)(F)F)C3)nc1` (mixture of isomers) [Example 52, 6-(3-(3-((1-(benzo[d]thiazol-7-yl)-2,2,2-trifluoroethyl)amino)propanoyl)-3,8-diazabicyclo[3.2.1]octan-8-yl)nicotinonitrile], the IC50 is less than 0.01 µM.

As to `CC(NCCC(=O)N1C[C@H]2CC[C@@H](C1)N2c1ccc(C#N)cn1)c1c(F)ccc2nccn12` (mixture of isomers) [Example 53, 6-(3-(3-((1-(6-fluoroimidazo[1,2-a]pyridin-5-yl)ethyl)amino)propanoyl)-3,8-diazabicyclo[3.2.1]octan-8-yl)nicotinonitrile], the concentration for half-maximal inhibition (IC50) is 0.01 to 0.1 µM.

Regarding `CC(NCC(=O)N1CC2CCC(C1)N2c1ccc(C#N)cn1)c1cccc2ncnn12` (racemic) [Example 54, 6-(3-((1-([1,2,4]triazolo[1,5-a]pyridin-5-yl)ethyl)glycyl)-3,8-diazabicyclo[3.2.1]octan-8-yl)nicotinonitrile], the 50% inhibitory concentration (IC50) lay in the range of 0.01 to 0.1 µM.

Take `COc1c(F)cccc1C(C)NCC(=O)N1CC2CCC(C1)N2c1ccc(C#N)cn1` (racemic) [Example 55, 6-(3-((1-(3-fluoro-2-methoxyphenyl)ethyl)glycyl)-3,8-diazabicyclo[3.2.1]octan-8-yl)nicotinonitrile]: the IC50 was less than 0.01 µM.

Turning to `COc1cc(F)ccc1C(C)NCC(=O)N1CC2CCC(C1)N2c1ccc(C#N)cn1` (racemic) [Example 56, 6-(3-((1-(4-fluoro-2-methoxyphenyl)ethyl)glycyl)-3,8-diazabicyclo[3.2.1]octan-8-yl)nicotinonitrile], the IC50 is less than 0.01 µM.

The IC50 is the concentration that gives 50% inhibition.

These data come from patent US12565501B2, “Muscarinic acetylcholine M1 receptor antagonists” (Contineum Therapeutics, Inc., priority 2019, dated 2026).
